In ChEMBL document CHEMBL3792297, “Studies on phenothiazines: New microtubule-interacting compounds with phenothiazine A-ring as potent antineoplastic agents” (Bioorg Med Chem, 2016):

How the values were obtained:
Type in all cases: functional
[1] = Growth inhibition of human UACC257 cells at 10 uM after 48 hrs by SRB assay relative to control; settings: UACC-257, 48 h, read-out: GI
SK-MEL-2 = experiment: Growth inhibition of human SK-MEL-2 cells at 10 uM after 48 hrs by SRB assay relative to control; settings: SK-MEL-2, 48 h, read-out: GI
[2] = Growth inhibition of human Hs 578T cells at 10 uM after 48 hrs by SRB assay relative to control; settings: read-out: GI
[3] = Growth inhibition of human IGROV1 cells at 10 uM after 48 hrs by SRB assay relative to control; settings: IGROV-1, 48 h, read-out: GI
SK-MEL-5 = experiment: Growth inhibition of human SK-MEL-5 cells at 10 uM after 48 hrs by SRB assay relative to control; settings: SK-MEL-5, 48 h, read-out: GI
[4] = Growth inhibition of human HL-60(TB) cells at 10 uM after 48 hrs by SRB assay relative to control; settings: HL-60, 48 h, read-out: GI
[5] = Growth inhibition of human SF268 cells at 10 uM after 48 hrs by SRB assay relative to control; settings: SF-268, 48 h, read-out: GI
MDA-MB-468 = experiment: Growth inhibition of human MDA-MB-468 cells at 10 uM after 48 hrs by SRB assay relative to control; settings: MDA-MB-468, 48 h, read-out: GI
ACHN = experiment: Growth inhibition of human ACHN cells at 10 uM after 48 hrs by SRB assay relative to control; settings: read-out: GI
[6] = Growth inhibition of human SW620 cells at 10 uM after 48 hrs by SRB assay relative to control; settings: SW-620, 48 h, read-out: GI
SN12C = experiment: Growth inhibition of human SN12C cells at 10 uM after 48 hrs by SRB assay relative to control; settings: read-out: GI
[7] = Growth inhibition of human NCI-ADR-RES cells at 10 uM after 48 hrs by SRB assay relative to control; settings: read-out: GI
SK-MEL-28 = experiment: Growth inhibition of human SK-MEL-28 cells at 10 uM after 48 hrs by SRB assay relative to control; settings: SK-MEL-28, 48 h, read-out: GI
[8] = Growth inhibition of human Caki1 cells at 10 uM after 48 hrs by SRB assay relative to control; settings: CAKI-1, 48 h, read-out: GI
[9] = Growth inhibition of human HCT116 cells at 10 uM after 48 hrs by SRB assay relative to control; settings: HCT-116, 48 h, read-out: GI
[10] = Growth inhibition of human OVCAR8 cells at 10 uM after 48 hrs by SRB assay relative to control; settings: OVCAR-8, 48 h, read-out: GI
MDA-MB-435 = experiment: Growth inhibition of human MDA-MB-435 cells at 10 uM after 48 hrs by SRB assay relative to control; settings: MDA-MB-435, 48 h, read-out: GI
[11] = Growth inhibition of human HCT15 cells at 10 uM after 48 hrs by SRB assay relative to control; settings: HCT-15, 48 h, read-out: GI
[12] = Growth inhibition of human SNB19 cells at 10 uM after 48 hrs by SRB assay relative to control; settings: SNB-19, 48 h, read-out: GI
HT-29 = experiment: Growth inhibition of human HT-29 cells at 10 uM after 48 hrs by SRB assay relative to control; settings: HT-29, 48 h, read-out: GI
[13] = Growth inhibition of human SKOV3 cells at 10 uM after 48 hrs by SRB assay relative to control; settings: SK-OV-3, 48 h, read-out: GI

SMILES	inhibition of growth at 10 µM [1] [%]	inhibition of growth at 10 µM (SK-MEL-2) [%]	inhibition of growth at 10 µM [2] [%]	inhibition of growth at 10 µM [3] [%]	inhibition of growth at 10 µM (SK-MEL-5) [%]	inhibition of growth at 10 µM [4] [%]	inhibition of growth at 10 µM [5] [%]	inhibition of growth at 10 µM (MDA-MB-468) [%]	inhibition of growth at 10 µM (ACHN) [%]	inhibition of growth at 10 µM [6] [%]	inhibition of growth at 10 µM (SN12C) [%]	inhibition of growth at 10 µM [7] [%]	inhibition of growth at 10 µM (SK-MEL-28) [%]	inhibition of growth at 10 µM [8] [%]	inhibition of growth at 10 µM [9] [%]	inhibition of growth at 10 µM [10] [%]	inhibition of growth at 10 µM (MDA-MB-435) [%]	inhibition of growth at 10 µM [11] [%]	inhibition of growth at 10 µM [12] [%]	inhibition of growth at 10 µM (HT-29) [%]	also measured
COc1ccc(C(=O)c2ccc3c(c2)Sc2cc(C(=O)c4ccc(OC)c(F)c4)ccc2N3C)cc1F	11	4	17	0	4	0	0	13	0	0	2	0	0	0	2	6	0	0	6	5	
O=C(c1ccc(F)cc1F)N1c2ccccc2Sc2ccccc21	44	19	16	33	68	71	46	64	20	66	9	55	41	51	73	35	80	76	37	68	inhibition of growth at 10 µM [13]: 22%
O=C(c1ccc(F)c(Cl)c1)N1c2ccccc2Sc2ccccc21	39	35	21	29	66	69	33	37	0	66	1	60	38	47	69	10	92	73	23	64	inhibition of growth at 10 µM [13]: 11%
O=C(c1ccc(Cl)cc1Cl)N1c2ccccc2Sc2ccccc21	36	21	4	39	65	64	50	49	39	62	33	39	35	50	77	49	52	70	43	52	inhibition of growth at 10 µM [13]: 31%
